# In patent US20230364118A1, “RIBITOL TREATMENT” (priority 2020, published 2023):
# Read-outs that look alike come from different tables or passages of the source.
# How the values were obtained:
# [1] = Functional observational battery (FOB)
# Method: In this GLP study, the potential effects of ribitol on the CNS were evaluated in CD-1 mice utilizing the FOB. Male mice were randomly assigned to 4 groups of 8 and were administered a single oral dose of 0 (vehicle, purified water), 0.5, 1.0, or 2.0 g/kg ribitol. The FOB tests were conducted pre dose, and at 0.5, 1, 2, 4, and 24 hours post dose.
# in vivo [2] = conditions: minipig, po
# Method: The purpose of this study was to determine the MTD following two oral doses 6±0.5 hours apart (Phase 1) and to characterize the toxicity and TK profile following 7 days BID dosing with ribitol with 6±0.5 hours between doses in minipigs.
# Minipigs were assessed for viability, clinical signs, body weight, food consumption, clinical pathology (hematology, coagulation, and serum chemistry), organ weights (adrenal glands, brain, heart, kidneys, liver with gall bladder, ovary, spleen, testes, and thymus), and macroscopic pathology at necropsy. Blood was taken for plasma TK analysis on Days 1 and 7.
# In Phase 1, Bama minipigs (2/sex/group) were ribitol at 0.3, 1.0, 1.5, or 2.0 g/kg/dose BID (0.6, 2.0, 3.0, or 4.0 g/kg/day) with 5.5 to 6.5 hours between doses. […] Minipigs were assessed for viability, clinical signs, body weight, food consumption, and macroscopic findings at necropsy.
# Doses were selected for Phase 2 based on the Phase 1 study results and in compliance with the guidance criteria for high dose selection for general toxicity studies (ICH M3 [R2]). In this phase, minipigs (2/sex/group) were given oral doses of 0 (vehicle control, water), 0.1, 0.3, or 1.0 g/kg/dose ribitol BID with 5.5 to 6.5 hours between doses (0.2, 0.6, or 2.0 g/kg/day, respectively).
# Single oral dose PK = format: in vivo, CD-1 mouse
# Method: The PK of ribitol was studied in male and female CD-1 mice following two oral doses at 0.3 and 1.0 g/kg (FIG. 10). Blood samples were collected serially up to 24 hours post dose.
# [3] = In vitro permeability study; format: in vitro ADME; conditions: human, Caco-2, 300 μg/mL
# Method: (§1) The absorption of ribitol was evaluated in Caco-2 cells at a concentration of 300 μg/mL. The apparent permeability values for apical (A)-to-basal (B) and B-to-A transport were <0.4 and […], respectively.
# Caco-2 cells = experiment: In vitro permeability study; format: in vitro ADME
# Method: as §1
# in vivo [4] = experiment: in vivo
# Method: The purpose of this study was to determine the MTD following a single oral dose (Phase 1) and to characterize the toxicity and toxicokinetic profile following 7 days BID dosing with ribitol (Phase 2).
# In Phase 1, Swiss Crl: CD1® mice (5/sex/group) were given ribitol at 0.3, 1.0, 1.5, or 2.0 g/kg/dose BID (0.6, 2.0, 3.0, or 4.0 g/kg/day) with 5 to 7 hours between doses. […] Mice were assessed for viability, clinical signs, body weight, food consumption, and macroscopic findings at necropsy.
# Doses were selected for Phase 2 based on the Phase 1 study results and the intended highest clinical dose of 12.0 g/day. In Phase 2, mice (5/sex/group) were given oral doses of 0 (vehicle control, purified water), 0.5, 1.0, or 1.5 g/kg/dose ribitol BID (1.0, 2.0, 3.0 g/kg/day) with 6 hours between doses. Mice were assessed for viability, clinical signs, body weight, food consumption, clinical pathology (hematology and serum chemistry), organ weights (adrenal glands, brain, heart, kidneys, liver with gall bladder, ovaries, spleen, testes, and thymus), and macroscopic pathology at necropsy. Blood was taken from a satellite group of animals (3/sex/timepoint) for plasma TK analysis on Days 1 and 7.
# [5] = CD-1, mouse, plasma, single PO 0.3 g/kg, female
# [6] = CD-1, mouse, plasma, single PO 0.3 g/kg, male
# [7] = CD-1, mouse, plasma, single PO 1.0 g/kg, female
# [8] = CD-1, mouse, plasma, single PO 1.0 g/kg, male
compound,measurement,setting,value
"OC[C@@H](O)[C@@H](O)[C@@H](O)CO [ribitol, (2R,3s,4S)-Pentane-1,2,3,4,5-pentol]",treatment-related effects on FOB parameters,"[1]; 0.5, 1.0, 2.0 g/kg, 0.5-24 h post dose",no treatment-related effects
same,safety margin for proposed clinical starting dose,"[1]; male, CD-1, mouse, in vivo, 24 h",19 fold
same,"NOEL, CNS effects (FOB)","[1]; single oral dose, male, highest dose tested",2000 mg/kg
same,MTD at 14 days,"in vivo [2]; both, Bama",≥ 4000 mg/kg/day
same,MTD,in vivo [2],≥ 2.0 g/kg/dose BID
same,Tmax,"Single oral dose PK; CD-1, mouse, plasma, oral, mice, stated for FOB timepoint selection, read-out: Tmax",~60 min
same,AUC(0-inf),Single oral dose PK; [5],55.9 µg·h/mL
same,Cmax,Single oral dose PK; [5],55 µg/mL
same,bioavailability,"Single oral dose PK; CD-1, mouse, plasma, single PO 0.3 g/kg, female, read-out: % F",30.9%
same,half-life,"Single oral dose PK; CD-1, mouse, plasma, single PO 0.3 g/kg, female, read-out: T1/2 (converted)",78.6 min
same,Tmax,"Single oral dose PK; CD-1, mouse, plasma, single PO 0.3 g/kg, female, read-out: Tmax",30 min
same,AUC(0-inf),Single oral dose PK; [6],41.6 µg·h/mL
same,Cmax,Single oral dose PK; [6],45.6 µg/mL
same,bioavailability,"Single oral dose PK; CD-1, mouse, plasma, single PO 0.3 g/kg, male, read-out: % F",24.6%
same,half-life,"Single oral dose PK; CD-1, mouse, plasma, single PO 0.3 g/kg, male, read-out: T1/2 (converted)",40.6 min
same,Tmax,"Single oral dose PK; CD-1, mouse, plasma, single PO 0.3 g/kg, male, read-out: Tmax",30 min
same,AUC(0-inf),Single oral dose PK; [7],129 µg·h/mL
same,Cmax,Single oral dose PK; [7],124 µg/mL
same,bioavailability,"Single oral dose PK; CD-1, mouse, plasma, single PO 1.0 g/kg, female, read-out: % F",22.1%
same,half-life,"Single oral dose PK; CD-1, mouse, plasma, single PO 1.0 g/kg, female, read-out: T1/2 (converted)",70.2 min
same,Tmax,"Single oral dose PK; CD-1, mouse, plasma, single PO 1.0 g/kg, female, read-out: Tmax",30 min
same,AUC(0-inf),Single oral dose PK; [8],173 µg·h/mL
same,Cmax,Single oral dose PK; [8],112 µg/mL
same,bioavailability,"Single oral dose PK; CD-1, mouse, plasma, single PO 1.0 g/kg, male, read-out: % F",30.5%
same,half-life,"Single oral dose PK; CD-1, mouse, plasma, single PO 1.0 g/kg, male, read-out: T1/2 (converted)",78.6 min
same,Tmax,"Single oral dose PK; CD-1, mouse, plasma, single PO 1.0 g/kg, male, read-out: Tmax",30 min
same,Tmax,"Single oral dose PK; both sexes, CD-1, mouse, plasma, po, read-out: Tmax after oral administration",< 120 min
same,bioavailability,"Single oral dose PK; both sexes, CD-1, plasma, po, mouse, range over doses and sexes, read-out: oral bioavailability",22.1 to 30.9%
same,half-life,"Single oral dose PK; both sexes, CD-1, plasma, po, mouse, range, read-out: T1/2 following the oral dose",40.6 to 78.6 min
same,Papp A→B at 300 μg/mL,[3]; read-out: apparent permeability A-to-B,< 4 nm/s
same,Papp B→A at 300 μg/mL,[3]; read-out: apparent permeability B-to-A,< 1 nm/s
same,P-gp substrate,Caco-2 cells,not a P-glycoprotein (P-gp) substrate
same,permeability class,Caco-2 cells,low permeability
same,"mortality, clinical signs, body weight, food consumption, macroscopic findings","in vivo [4]; Phase 1, up to 2.0 g/kg/dose BID (4.0 g/kg/day), 14-day observation",no treatment-related mortality
same,NOAEL at 7 days,"in vivo [4]; both, CD-1, mouse, in vivo, po",3000 mg/kg/day
same,NOAEL,"in vivo [4]; mouse, in vivo, po",1.5 g/kg/dose BID
